Results as given in patent US9586963B2 (GENFIT, priority 2011, dated 2017).

Experiments:
Rev-Erb alpha = biological target: T1, Rev-Erb alpha (Homo sapiens, UniProt P20393); assay: M2H (mammalian two-hybrid) cellular activation assay of Rev-Erb alpha; assay type: cell-based; conditions: M2H assay, HEK293 cells; for EC50: Gal4-Rev-Erb alpha / VP16-NCoR, luciferase reporter
T1 sequence (P20393 284-614 limits assumed): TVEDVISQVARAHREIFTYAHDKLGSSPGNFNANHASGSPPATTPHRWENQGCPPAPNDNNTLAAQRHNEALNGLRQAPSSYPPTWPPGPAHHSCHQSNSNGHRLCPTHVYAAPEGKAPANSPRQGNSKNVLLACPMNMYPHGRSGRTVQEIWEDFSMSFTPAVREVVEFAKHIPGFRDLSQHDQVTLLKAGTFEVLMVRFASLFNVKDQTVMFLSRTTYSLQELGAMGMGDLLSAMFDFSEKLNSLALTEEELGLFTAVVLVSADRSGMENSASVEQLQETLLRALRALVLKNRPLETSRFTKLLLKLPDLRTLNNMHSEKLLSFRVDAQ
Summary of the method: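 Six-point dose-response, 18 h, 37 °C, serum-free, in HEK293 cells carrying a Gal4-RE luciferase reporter with Gal4-Rev-Erb alpha or beta plus VP16-NCoR (corepressor interaction readout). EC50 and TOP activation (%) derived from luminescence across four experiments.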

| SMILES | melting point | EC50 (Rev-Erb alpha) | Emax (Rev-Erb alpha; relative to DMSO, at the tested dose, read-out: TOP activation) |
| --- | --- | --- | --- |
| Clc1cccc(-c2cccc(Oc3ccc4nnc(Cl)n4n3)c2)c1 [Cpd.3-13, 3-chloro-6-(3′-chlorobiphenyl-3-yloxy)-[1,2,4]triazolo[4,3-b]pyridazine] | 77.5 to 123.8 °C | 100 to 1000 nM |  |
| COc1cccc(-c2cccc(Oc3ccc4nnc(Cl)n4n3)c2)c1 [Cpd.3-14, 3-chloro-6-(3′-methoxybiphenyl-3-yloxy)-[1,2,4]triazolo[4,3-b]pyridazine] | 91.46 °C | 1000 to 6000 nM |  |
| COc1ccc(Oc2ccc3nnc(Cl)n3n2)c(-c2ccccc2)c1 [Cpd.4-14, 6-(5-methoxybiphenyl-2-yloxy)-3-chloro-[1,2,4]triazolo[4,3-b]pyridazine] | 164.6 °C | 100 to 1000 nM |  |
| Fc1ccc(Oc2ccc3nnc(Cl)n3n2)c(-c2ccccc2)c1 [Cpd.4-15, 6-(5-fluoro-biphenyl-2-yloxy)-3-chloro-[1,2,4]triazolo[4,3-b]pyridazine] | 148.4 °C | 100 to 1000 nM |  |
| Fc1ccccc1-c1ccccc1Oc1ccc2nnc(Cl)n2n1 [Cpd.4-17, 6-(2′-fluoro-biphenyl-2-yloxy)-3-chloro-[1,2,4]triazolo[4,3-b]pyridazine] | 95.9 °C | 100 to 1000 nM |  |
| Fc1ccc(-c2ccccc2Oc2ccc3nnc(Cl)n3n2)cc1F [Cpd.4-20, 6-(3′,4′-difluoro-biphenyl-2-yloxy)-3-chloro-[1,2,4]triazolo[4,3-b]pyridazine] | 129.3 °C | 100 to 1000 nM |  |
| Oc1cccc(-c2ccccc2Oc2ccc3nnc(Cl)n3n2)c1 [Cpd.4-21, 6-(3′-hydroxy-biphenyl-2-yloxy)-3-chloro-[1,2,4]triazolo[4,3-b]pyridazine] | 203.7 °C | 100 to 1000 nM |  |
| COc1ccc(-c2ccccc2Oc2ccc3nnc(Cl)n3n2)cc1 [Cpd.4-22, 6-(4′-methoxy-biphenyl-2-yloxy)-3-chloro-[1,2,4]triazolo[4,3-b]pyridazine] | 138.1 °C | 100 to 1000 nM |  |
| Cc1ccc(-c2ccccc2Oc2ccc3nnc(Cl)n3n2)cc1 [Cpd.4-23, 6-(4′-methyl-biphenyl-2-yloxy)-3-chloro-[1,2,4]triazolo[4,3-b]pyridazine] | 166.9 to 173.4 °C | 100 to 1000 nM |  |
| FC(F)(F)c1ccc(-c2ccccc2Oc2ccc3nnc(Cl)n3n2)cc1 [Cpd.4-24, 6-(4′-trifluoromethyl-biphenyl-2-yloxy)-3-chloro-[1,2,4]triazolo[4,3-b]pyridazine] | 185.8 °C | 100 to 1000 nM |  |
| Clc1ccccc1-c1ccccc1Oc1ccc2nnc(Cl)n2n1 [Cpd.4-25, 6-(2′-chloro-biphenyl-2-yloxy)-3-chloro-[1,2,4]triazolo[4,3-b]pyridazine] | 81.9 °C | < 100 nM |  |
| Fc1cc(Oc2ccc3nnc(Cl)n3n2)c(-c2ccccc2)cc1F [Cpd.4-26, 6-(4,5-difluoro-biphenyl-2-yloxy)-3-chloro-[1,2,4]triazolo[4,3-b]pyridazine] | 125.6 °C | 100 to 1000 nM |  |
| Cc1ccc(Oc2ccc3nnc(Cl)n3n2)c(-c2ccccc2)c1 [Cpd.4-27, 6-(5-methyl-biphenyl-2-yloxy)-3-chloro-[1,2,4]triazolo[4,3-b]pyridazine] | 144.5 °C | < 100 nM |  |
| Fc1cccc(-c2ccc(F)cc2Oc2ccc3nnc(Cl)n3n2)c1 [Cpd.4-30, 6-(3′-fluoro-4-fluoro-biphenyl-2-yloxy)-3-chloro-[1,2,4]triazolo[4,3-b]pyridazine] | 123.4 °C | 100 to 1000 nM |  |
| Fc1ccc(-c2ccc(F)cc2Oc2ccc3nnc(Cl)n3n2)cc1 [Cpd.4-31, 6-(4′-fluoro-4-fluoro-biphenyl-2-yloxy)-3-chloro-[1,2,4]triazolo[4,3-b]pyridazine] | 129.7 °C | 100 to 1000 nM |  |
| Oc1ccc(Oc2ccc3nnc(Cl)n3n2)c(-c2ccccc2)c1 [Cpd.4-32, 6-(5-hydroxy-biphenyl-2-yloxy)-3-chloro-[1,2,4]triazolo[4,3-b]pyridazine] | 267.7 °C | 1000 to 6000 nM |  |
| FC(F)(F)c1ccc(-c2ccccc2)c(Oc2ccc3nnc(Cl)n3n2)c1 [Cpd.4-33, 6-(4-trifluoromethyl-biphenyl-2-yloxy)-3-chloro-[1,2,4]triazolo[4,3-b]pyridazine] | 138.9 °C | < 100 nM |  |
| COc1ccc(-c2ccc(F)cc2)c(Oc2ccc3nnc(Cl)n3n2)c1 [Cpd.4-34, 6-(4′-fluoro-4-methoxy-biphenyl-2-yloxy)-3-chloro-[1,2,4]triazolo[4,3-b]pyridazine] | 171.7 °C | 100 to 1000 nM |  |

| SMILES | melting point | EC50 (Rev-Erb alpha) | Emax (Rev-Erb alpha; relative to DMSO, at the tested dose, read-out: TOP activation) |
| --- | --- | --- | --- |
| Clc1ccc(Oc2ccc3nnc(Cl)n3n2)c(-c2ccccc2)c1 [Cpd.4-35, 6-(5-chloro-biphenyl-2-yloxy)-3-chloro-[1,2,4]triazolo[4,3-b]pyridazine] | 166.2 °C | 100 to 1000 nM |  |
| FC(F)(F)c1ccc(-c2ccccc2)c(Oc2ccc3nnc(C(F)(F)F)n3n2)c1 [Cpd.4-38, 6-(4-trifluoromethyl-biphenyl-2-yloxy)-3-(trifluoromethyl)-[1,2,4]triazolo[4,3-b]pyridazine] | 150 °C | 100 to 1000 nM |  |
| CN(C)Cc1ccc(-c2ccccc2)c(Oc2ccc3nnc(Cl)n3n2)c1 [Cpd.4-41, 3-chloro-6-(4-N,N-dimethylaminomethyl-biphenyl-2-yloxy)-[1,2,4]triazolo[4,3-b]pyridazine] | 141 to 144 °C | 1000 to 6000 nM |  |
| CNc1ccc(Oc2ccc3nnc(Cl)n3n2)c(-c2ccccc2)c1 [Cpd.4-47, 3-chloro-6-(5-methylamino-biphenyl-2-yloxy)-[1,2,4]triazolo[4,3-b]pyridazine] | 157 to 158 °C | < 100 nM |  |
| CCCCNc1ccc(-c2ccccc2)c(Oc2ccc3nnc(Cl)n3n2)c1 [Cpd.4-50, 3-chloro-6-(4-N-butylamino-biphenyl-2-yloxy)-[1,2,4]triazolo[4,3-b]pyridazine] | 132 to 135 °C | 100 to 1000 nM |  |
| CC(C)CNc1ccc(-c2ccccc2)c(Oc2ccc3nnc(Cl)n3n2)c1 [Cpd.4-51, 3-chloro-6-(4-N-2-methylpropylamino-biphenyl-2-yloxy)-[1,2,4]triazolo[4,3-b]pyridazine] | 124 to 128 °C | 100 to 1000 nM |  |
| CCCN(CCC)c1ccc(Oc2ccc3nnc(Cl)n3n2)c(-c2ccccc2)c1 [Cpd.4-53, 3-chloro-6-(5-dipropylamino-biphenyl-2-yloxy)-[1,2,4]triazolo[4,3-b]pyridazine] | 106 to 109 °C | 100 to 1000 nM |  |
| CCN(CC)c1ccc(Oc2ccc3nnc(Cl)n3n2)c(-c2ccccc2)c1 [Cpd.4-55, 3-chloro-6-(5-diethylamino-biphenyl-2-yloxy)-[1,2,4]triazolo[4,3-b]pyridazine] | 55 to 58 °C | < 100 nM |  |
| CCCNc1ccc(Oc2ccc3nnc(Cl)n3n2)c(-c2ccccc2)c1 [Cpd.4-56, 3-chloro-6-(5-propylamino-biphenyl-2-yloxy)-[1,2,4]triazolo[4,3-b]pyridazine] | 55 to 58 °C | 100 to 1000 nM |  |
| CN(Cc1ccccc1)Cc1ccc(-c2ccccc2)c(Oc2ccc3nnc(Cl)n3n2)c1 [Cpd.4-60, 3-chloro-6-(4-N-methyl-N-benzylaminomethyl-biphenyl-2-yloxy)-[1,2,4]triazolo[4,3-b]pyridazine] | 119 to 122 °C | 100 to 1000 nM |  |
| Clc1nnc2ccc(Oc3cc(CN4CCOCC4)ccc3-c3ccccc3)nn12 [Cpd.4-64, 3-chloro-6-(4-morpholinomethyl-biphenyl-2-yloxy)-[1,2,4]triazolo[4,3-b]pyridazine] | 162 to 163 °C | 1000 to 6000 nM |  |
| CC(C)CNc1ccc(Oc2ccc3nnc(Cl)n3n2)c(-c2ccccc2)c1 [Cpd.4-67, 3-chloro-6-(5-isobutylamino-biphenyl-2-yloxy)-[1,2,4]triazolo[4,3-b]pyridazine] | 62 to 67 °C | < 100 nM |  |
| FC(F)(F)Oc1ccc(-c2ccccc2)c(Oc2ccc3nnc(Cl)n3n2)c1 [Cpd.4-68, 3-chloro-6-(4-trifluoromethyloxy-biphenyl-2-yloxy)-[1,2,4]triazolo[4,3-b]pyridazine] | 225.4 to 228.2 °C | 100 to 1000 nM |  |
| NC(=O)c1ccc(Oc2ccc3nnc(Cl)n3n2)c(-c2ccccc2)c1 [Cpd.4-70, 3-chloro-6-(5-aminocarbonyl-biphenyl-2-yloxy)-[1,2,4]triazolo[4,3-b]pyridazine] | 196.5 to 198.4 °C | > 6000 nM | > 130% |
| Oc1cccc(-c2cc(F)ccc2Oc2ccc3nnc(Cl)n3n2)c1 [Cpd.4-77, 3-chloro-6-(5-fluoro-3′-hydroxy-biphenyl-2-yloxy)-[1,2,4]triazolo[4,3-b]pyridazine] | 241.3 to 244.5 °C | 1000 to 6000 nM |  |
| FC(F)(F)c1ccc(-c2ccc(Cl)nc2)c(Oc2ccc3nnc(Cl)n3n2)c1 [Cpd.4-101, 3-chloro-6-(2-(6-chloropyridin-3-yl)-5-(trifluoromethyl)phenoxy)-[1,2,4]triazolo[4,3-b]pyridazine] | 198 to 200 °C | 100 to 1000 nM |  |
| COc1ccc(-c2cccc(C(F)(F)F)c2)c(Oc2ccc3nnc(Cl)n3n2)c1 [Cpd.4-113, 3-chloro-6-{[4-methoxy-3′-(trifluoromethyl)biphenyl-2-yl]oxy}-[1,2,4]triazolo[4,3-b]pyridazine] | 111.6 °C | 100 to 1000 nM |  |
